Measurements: patent publication US20210317092A1 (BAYER PHARMA AKTIENGESELLSCHAFT, priority 2016, published 2021)
Where two headings read alike, the source gives them in different places.

Columns and labels:
[1] = biological target: T1, human Bradykinin B1 receptor (Homo sapiens, UniProt P46663); experiment: Calcium flux Assay (FLIPR) with recombinant CHO-K1 cells expressing human Bradykinin B1 receptor, in presence (hB1 IC50) or absence (hB1 free IC50) of 0.1% BSA; format: cell-based
T1 construct: host or cells: CHO-K1
T1 sequence (P46663 1-353): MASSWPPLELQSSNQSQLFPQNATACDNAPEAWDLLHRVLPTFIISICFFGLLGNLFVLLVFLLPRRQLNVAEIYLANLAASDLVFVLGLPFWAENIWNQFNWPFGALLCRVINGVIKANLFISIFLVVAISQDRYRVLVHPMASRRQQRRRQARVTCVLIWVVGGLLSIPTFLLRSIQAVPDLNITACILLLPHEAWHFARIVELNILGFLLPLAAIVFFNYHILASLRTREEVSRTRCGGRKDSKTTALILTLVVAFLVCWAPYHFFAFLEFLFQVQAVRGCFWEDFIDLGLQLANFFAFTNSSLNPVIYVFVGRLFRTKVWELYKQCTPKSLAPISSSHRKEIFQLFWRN

IL-8 secretion = experiment: Inhibitory activity on Bradykinin B1 agonist-induced secretion of IL-8 in human IMR-90 cells; format: cell-based; details: 30 min compound, stimulated with 0.1 μM Lys-[Des-Arg9]Bradykinin and 0.1 μM Sar-[D-Phe8]-des-Arg9-Bradykinin for 5 hours
Excerpt: Inhibitory activity on Bradykinin B1 agonist-induced secretion of IL-6 and IL-8 in human IMR-90 cells
The effect of the compound examples on secretion of the cytokine IL-6 and IL-8 has been investigated in the human foetal lung fibroblast IMR-90 cell line. Here the induction of the cytokine secretion was induced by the Bradykinin B1 agonists Lys-[Des-Arg9]Bradykinin (CAS 71800-36-7, Tocris Bioscience) and Sar-[D-Phe8]-des-Arg9-Bradykinin (CAS 126959-88-4, Tocris Bioscience) leading to the activation of the Bradykinin B1-driven signalling pathway. This effect is indicative for a strong anti-inflammatory mode of action in kinin driven inflammation.
IMR-90 cells were cultured in Eagle's Minimum Essential Medium (EMEM) containing 2 mM L-glutamine, 1 g/L glucose, 1.5 g/L NaHCO3, 1 mM sodium pyruvate and non-essential amino acids (ATCC, 30-2003™) supplemented with 10% FBS (Biochrom, S0615) and 50 U/mL Penicillin, 50 μg/mL Streptomycin (PAA, P11-010). The assay was performed in EMEM and a cell density of […] IMR-90 cells/96-well. The compound examples have been serial diluted in 100% DMSO and evaluated at 8 different concentrations within the range of 3 nM and 10 μM and a final DMSO concentration of 0.4%. The IMR-90 cells have been incubated with the respective concentration of the compound for 30 min. The enhanced secretion of IL-6 and IL-8 was induced by the stimulation of these cells with 0.1 μM Lys-[Des-Arg9]Bradykinin (Tocris, catalogue no. 3225) and 0.1 μM Sar-[D-Phe8]-des-Arg9-Bradykinin (Tocris, catalogue no. 3230) for 5 hours at 37° C. and 5% C02. Further, cells have been treated with Lys-[Des-Arg9]Bradykinin and Sar-[D-Phe8]-des-Arg9-Bradykinin as neutral control and with 0.1% DMSO as inhibitor control. The amount of IL-6 and IL-8 in the supernatant was determined using the Human Prolnflammatory Panel II (4-Plex) (MSD, K15025B) according to manufacturer's instruction. Briefly, supernatants were added onto assay plates and incubated at room temperature for 1-2 h with vigorous shaking at 600 rpm. Detection antibodies were then added onto the supernatants and incubated at room temperature for an additional 1-2 h with vigorous shaking at 600 rpm. Plates were washed three times with phosphate-buffered saline (PBS; 137 mM NaCl, 2.7 mM KCl, 6.5 mM Na2HPO4, 1.7 mM KH2P04) containing 0.05% Tween-20 (Bio-Rad, 161-0781) and electrochemiluminescence detected using the MSD Sector Imager 6000 plate reader. The cell viability was measured using the CellTiter-Glo Luminescent Assay (Promega, G7571) following the manufacturers protocol. Briefly, the CellTiter-Glo Reagent was diluted with PBS (1:1) and added directly to cells. After incubation and shaking for 10 minutes luminescent signal was measured which is proportional to the amount of ATP present.
The effect of the compound on the amount of secreted cytokine has been calculated as 100/(measured cytokine concentration of neutral control-measured cytokine concentration of inhibitor control)*(measured cytokine concentration of compound dose-measured cytokine concentration of inhibitor control). IC50 values are determined using 4-parameter-fit.
The compound examples were tested in triplicates per plate and the inhibitory activity was determined as the relation between neutral and inhibitor control in percent. IC50 values were calculated using the 4-parameter logistic model.

[2] = in absence of 0.1% BSA, read-out: hB1 free IC50
[3] = in presence of 0.1% BSA, read-out: hB1 IC50

| IC50 [1, 2] [nM] | IC50 [1, 3] [nM] | IC50 (IL-8 secretion) [nM] | Compound |
| --- | --- | --- | --- |
| 3.35 | 22.6 | 60 | COc1ccc(-c2ccc(NC(=O)C3(c4cccc(Cl)c4)CC3)cc2-c2nnn[nH]2)cc1OC [Example 1, 1-(3-Chlorophenyl)-N-[3′,4′-dimethoxy-2-(1H-tetrazol-5-yl)biphenyl-4-yl]cyclopropanecarboxamide] |
| 16.1 | 33.5 | 75 | CCOc1ccc(-c2ccc(NC(=O)C3(c4cccc(Cl)c4)CC3)cc2-c2nnn[nH]2)cn1 [Example 253, 1-(3-Chlorophenyl)-N-[4-(6-ethoxypyridin-3-yl)-3-(1H-tetrazol-5-yl)phenyl]cyclopropanecarboxamide] |
